From EP1025114B1, “3'-N-MODIFIED 6-O-SUBSTITUTED ERYTHROMYCIN KETOLIDE DERIVATIVES HAVING ANTIBACTERIAL ACTIVITY” (priority 1997, dated 1999)

Legend:
Assay in all cases: In vitro antibacterial activity, agar dilution MIC
Type in all cases: cell-based
[1] = system: Streptococcus Pheumoniae GYR 1171; conditions: Streptococcus Pheumoniae GYR 1171 (organism code YY); BHI agar, 35-37 °C, 20 to 24 hours; unit assumed
Method: (§1) Representative compounds of the present invention were assayed in vitro for antibacterial activity as follows: Twelve petri dishes containing successive aqueous dilutions of the test compound mixed with 10 mL of sterilized Brain Heart infusion (BHI) agar (Difco 0418-01-5) were prepared. Each plate was inoculated with 1:100 (or 1:10 for slow-growing strains, such as Micrococcus and Streptococcus) dilutions of up to 32 different microorganisms, using a Steers replicator block. […] In addition, a control plate, using BHI agar containing no test compound, was prepared and incubated at the beginning and end of each test.
(§2) An additional plate containing a compound having known susceptibility patterns for the organisms being tested and belonging to the same antibiotic class as the test compound was also prepared and incubated as a further control, as well as to provide test-to-test comparability.
(§3) After incubation, each plate was visually inspected. The minimum inhibitory concentration (MIC) was defined as the lowest concentration of drug yielding no growth, a slight haze, or sparsely isolated colonies on the inoculum spot as compared to the growth control.

[2] = system: Streptococcus Pheumoniae 5979; conditions: Streptococcus Pheumoniae 5979 (organism code ZZ); BHI agar, 35-37 °C, 20 to 24 hours; unit assumed
Method: as §1, §2, §3

[3] = system: Staphylococcus aureus A5177; conditions: Staphylococcus aureus A5177 (organism code BB); BHI agar, 35-37 °C, 20 to 24 hours; unit assumed
Method: as §1, §2, §3

[4] = system: Streptococcus agalactiae CMX 508; conditions: Streptococcus agalactiae CMX 508 (organism code KK); BHI agar, 35-37 °C, 20 to 24 hours; unit assumed
Method: as §1, §2, §3

[5] = system: Escherichia coli JUHL; conditions: Escherichia coli JUHL (organism code QQ); BHI agar, 35-37 °C, 20 to 24 hours; unit assumed
Method: as §1, §2, §3

[6] = system: Streptococcus Pheumoniae 5649; conditions: Streptococcus Pheumoniae 5649 (organism code ZZA); BHI agar, 35-37 °C, 20 to 24 hours; unit assumed
Method: as §1, §2, §3

[7] = system: Staphylococcus epidermidis 3519; conditions: Staphylococcus epidermidis 3519 (organism code HH); BHI agar, 35-37 °C, 20 to 24 hours; unit assumed
Method: as §1, §2, §3

[8] = system: Candida albicans CCH 442; conditions: Candida albicans CCH 442 (organism code TT); BHI agar, 35-37 °C, 20 to 24 hours; unit assumed
Method: as §1, §2, §3

[9] = system: Streptococcus Pheumoniae ATCC6303; conditions: Streptococcus Pheumoniae ATCC6303 (organism code XX); BHI agar, 35-37 °C, 20 to 24 hours; unit assumed
Method: as §1, §2, §3

[10] = system: Streptococcus pyogenes PIU 2548; conditions: Streptococcus pyogenes PIU 2548 (organism code NN); BHI agar, 35-37 °C, 20 to 24 hours; unit assumed
Method: as §1, §2, §3

[11] = system: Staphylococcus aureus 1775; conditions: Staphylococcus aureus 1775 (organism code GG); BHI agar, 35-37 °C, 20 to 24 hours; unit assumed
Method: as §1, §2, §3

[12] = system: Mycobacterium smegmatis ATCC 114; conditions: Mycobacterium smegmatis ATCC 114 (organism code UU); BHI agar, 35-37 °C, 20 to 24 hours; unit assumed
Method: as §1, §2, §3

[13] = system: Staphylococcus aureus A-5278; conditions: Staphylococcus aureus A-5278 (organism code CC); BHI agar, 35-37 °C, 20 to 24 hours; unit assumed
Method: as §1, §2, §3

[14] = system: Streptococcus bovis A-5169; conditions: Streptococcus bovis A-5169 (organism code JJ); BHI agar, 35-37 °C, 20 to 24 hours; unit assumed
Method: as §1, §2, §3

[15] = system: Streptococcus pyogenes 930; conditions: Streptococcus pyogenes 930 (organism code MM); BHI agar, 35-37 °C, 20 to 24 hours; unit assumed
Method: as §1, §2, §3

[16] = system: Enterococcus faecium ATCC 8043; conditions: Enterococcus faecium ATCC 8043 (organism code II); BHI agar, 35-37 °C, 20 to 24 hours; unit assumed
Method: as §1, §2, §3

[17] = system: Staphylococcus aureus ATCC 6538P; conditions: Staphylococcus aureus ATCC 6538P (organism code AA); BHI agar, 35-37 °C, 20 to 24 hours; unit assumed
Method: as §1, §2, §3

[18] = system: Escherichia coli DC-2; conditions: Escherichia coli DC-2 (organism code SS); BHI agar, 35-37 °C, 20 to 24 hours; unit assumed
Method: as §1, §2, §3

[19] = system: Staphylococcus aureus CMX 642A; conditions: Staphylococcus aureus CMX 642A (organism code DD); BHI agar, 35-37 °C, 20 to 24 hours; unit assumed
Method: as §1, §2, §3

[20] = system: Staphylococcus aureus NCTC10649M; conditions: Staphylococcus aureus NCTC10649M (organism code EE); BHI agar, 35-37 °C, 20 to 24 hours; unit assumed
Method: as §1, §2, §3

[21] = system: Nocardia Asteroides ATCC9970; conditions: Nocardia Asteroides ATCC9970 (organism code VV); BHI agar, 35-37 °C, 20 to 24 hours; unit assumed
Method: as §1, §2, §3

[22] = system: Haemophilis Influenzae DILL AMP R; conditions: Haemophilis Influenzae DILL AMP R (organism code WW); BHI agar, 35-37 °C, 20 to 24 hours; unit assumed
Method: as §1, §2, §3

[23] = system: Staphylococcus aureus CMX 553; conditions: Staphylococcus aureus CMX 553 (organism code FF); BHI agar, 35-37 °C, 20 to 24 hours; unit assumed
Method: as §1, §2, §3

[24] = system: Escherichia coli SS; conditions: Escherichia coli SS (organism code RR); BHI agar, 35-37 °C, 20 to 24 hours; unit assumed
Method: as §1, §2, §3

[25] = system: Micrococcus luteus ATCC 4698; conditions: Micrococcus luteus ATCC 4698 (organism code PP); BHI agar, 35-37 °C, 20 to 24 hours; unit assumed
Method: as §1, §2, §3

[26] = system: Micrococcus luteus ATCC 9341; conditions: Micrococcus luteus ATCC 9341 (organism code OO); BHI agar, 35-37 °C, 20 to 24 hours; unit assumed
Method: as §1, §2, §3

[27] = system: Streptococcus pyogenes EES61; conditions: Streptococcus pyogenes EES61 (organism code LL); BHI agar, 35-37 °C, 20 to 24 hours; unit assumed
Method: as §1, §2, §3

SMILES	MIC [1]	MIC [2]	MIC [3]	MIC [4]	MIC [5]	MIC [6]	MIC [7]	MIC [8]	MIC [9]	MIC [10]	MIC [11]	MIC [12]	MIC [13]	MIC [14]	MIC [15]	MIC [16]	MIC [17]	MIC [18]	MIC [19]	MIC [20]	also measured
CC[C@H]1OC(=O)[C@H](C)C(=O)[C@H](C)[C@@H](O[C@@H]2O[C@H](C)C[C@H](NC)[C@H]2OC(C)=O)[C@](C)(OCC=Cc2cnc3ccccc3c2)C[C@@H](C)C(=O)[C@H](C)[C@H]2NC(=O)O[C@@]21C [Example 2, Compound of formula (II), R is -CH2CH=CH-(3-quinolyl), R^p is acetyl, R^1 is H, R^2 is CH3, W is absent, R^w is H]	0.03 µg/mL	128 µg/mL	0.2 µg/mL	≤ 0.005 µg/mL	> 100 µg/mL	0.5 µg/mL	0.2 µg/mL	> 100 µg/mL	0.03 µg/mL	0.39 µg/mL	> 100 µg/mL	3.1 µg/mL	> 100 µg/mL	≤ 0.005 µg/mL	25 µg/mL	0.05 µg/mL	0.2 µg/mL	> 100 µg/mL	0.2 µg/mL	0.2 µg/mL	MIC [21]: 1.56 µg/mL; MIC [22]: 16 µg/mL; MIC [23]: 0.2 µg/mL; MIC [24]: 0.39 µg/mL; MIC [25]: 0.1 µg/mL; MIC [26]: 0.02 µg/mL; MIC [27]: ≤ 0.005 µg/mL
CC[C@H]1OC(=O)[C@H](C)C(=O)[C@H](C)[C@@H](O[C@@H]2O[C@H](C)C[C@H](NC)[C@H]2O)[C@](C)(OCC=Cc2cnc3ccccc3c2)C[C@@H](C)C(=O)[C@H](C)[C@H]2NC(=O)O[C@@]21C [Example 3, Compound of Formula (II); R is -CH2CH=CH-(3-quinolyl), R^p is H, W is absent, R^w is H, R^1 is H, R^2 is CH3-]	0.03 µg/mL	> 128 µg/mL	0.2 µg/mL	0.02 µg/mL	> 100 µg/mL	0.5 µg/mL	0.39 µg/mL	> 100 µg/mL	0.03 µg/mL	0.39 µg/mL	> 100 µg/mL	12.5 µg/mL	> 100 µg/mL	0.01 µg/mL	12.5 µg/mL	0.2 µg/mL	0.2 µg/mL	> 100 µg/mL	0.39 µg/mL	0.39 µg/mL	MIC [21]: 3.1 µg/mL; MIC [22]: 16 µg/mL; MIC [23]: 0.39 µg/mL; MIC [24]: 0.78 µg/mL; MIC [25]: 0.1 µg/mL; MIC [26]: 0.02 µg/mL; MIC [27]: 0.01 µg/mL
CCOC(=O)CN(C)[C@H]1C[C@@H](C)O[C@@H](O[C@@H]2[C@@H](C)C(=O)[C@@H](C)C(=O)O[C@H](CC)[C@@]3(C)OC(=O)N[C@@H]3[C@@H](C)C(=O)[C@H](C)C[C@@]2(C)OCC=Cc2cnc3ccccc3c2)[C@@H]1O [Example 5, Compound of Formula (II); R is -CH2CH=CH-(3-quinolyl), R^p is H, W is absent, R^w is H, R^1 is CH2C(O)-O-CH2CH3, R^2 is CH3.]	0.25 µg/mL	> 128 µg/mL	12.5 µg/mL	1.56 µg/mL	> 100 µg/mL	2 µg/mL	12.5 µg/mL	> 100 µg/mL	0.25 µg/mL	6.2 µg/mL	> 100 µg/mL	25 µg/mL	> 100 µg/mL	1.56 µg/mL	> 100 µg/mL	6.2 µg/mL	6.2 µg/mL	> 100 µg/mL	12.5 µg/mL	12.5 µg/mL	MIC [21]: 25 µg/mL; MIC [22]: 128 µg/mL; MIC [23]: 12.5 µg/mL; MIC [24]: 25 µg/mL; MIC [25]: 6.2 µg/mL; MIC [26]: 0.78 µg/mL; MIC [27]: 0.39 µg/mL
